Measured values reported in US7893260B2, “Substituted quinazolin-4-one compounds for antagonizing TRPV3 function” (priority 2005, dated 2011).

How the values were obtained:
human TRPV3 = target: T1, human TRPV3 (Homo sapiens, UniProt Q8NET8); test: Whole-cell patch clamp, cells expressing human TRPV3; type: cell-based; settings: human TRPV3 IC50 converted to mass concentration
T1 construct: expressed in transfected cells; host or cells: HEK293/TREx (Invitrogen), tetracycline-inducible
T1 sequence (Q8NET8 1-790): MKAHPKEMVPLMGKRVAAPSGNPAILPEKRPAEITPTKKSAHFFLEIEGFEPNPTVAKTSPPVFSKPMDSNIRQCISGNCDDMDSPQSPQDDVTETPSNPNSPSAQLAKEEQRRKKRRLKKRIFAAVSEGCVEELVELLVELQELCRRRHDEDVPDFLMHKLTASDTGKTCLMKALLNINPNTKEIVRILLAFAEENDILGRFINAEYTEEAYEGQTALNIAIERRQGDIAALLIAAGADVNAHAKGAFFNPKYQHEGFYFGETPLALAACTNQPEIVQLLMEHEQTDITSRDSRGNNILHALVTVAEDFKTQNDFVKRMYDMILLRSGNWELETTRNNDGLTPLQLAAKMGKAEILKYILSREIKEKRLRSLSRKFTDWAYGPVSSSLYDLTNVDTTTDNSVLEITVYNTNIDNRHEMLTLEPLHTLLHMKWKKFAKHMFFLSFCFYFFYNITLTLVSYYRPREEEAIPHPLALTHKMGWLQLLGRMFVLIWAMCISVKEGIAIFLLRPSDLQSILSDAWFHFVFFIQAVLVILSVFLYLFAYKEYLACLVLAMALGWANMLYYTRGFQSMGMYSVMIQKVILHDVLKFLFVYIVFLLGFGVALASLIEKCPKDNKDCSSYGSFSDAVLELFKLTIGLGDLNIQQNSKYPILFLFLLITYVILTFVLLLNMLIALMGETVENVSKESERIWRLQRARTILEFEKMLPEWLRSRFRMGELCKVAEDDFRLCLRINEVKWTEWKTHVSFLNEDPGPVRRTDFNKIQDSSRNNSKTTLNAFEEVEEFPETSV
Excerpt: (§1) Whole-cell patch clamp experiments permit the detection of currents through the TRPV3 channel in the cell line described above. A glass electrode is brought into contact with a single cell and the membrane is then ruptured, permitting control of the voltage of the cell membrane and measurement of currents flowing across the membrane using the amplifier attached to the electrode. A perfusion system permits control of the extracellular solution, including the addition of blockers and activators of the current. The current can be activated by heating this solution to 28° C. or warmer or by addition of 20 μM 2-APB to the solution.
(§2) TRPV3 cells were induced 20-48 hours, removed from growth plates, and replated at low density (to attain good single-cell physical separation) on glass coverslips for measurement. In some cases, cells were grown in low density overnight on glass coverslips. Patch clamp recordings were made in the whole-cell mode with a holding potential of −40 mV. […] Currents elicited were quantified at −80 mV and +80 mV. The internal solution consisted of 140 mM cesium aspartate, 10 mM EGTA, 2.27 mM MgCl2, 1.91 mM CaCl2 and 10 mM HEPES, pH to 7.2 with KOH; with 50 nM calculated free Ca^2+. […]
(§3) The plasma levels of a TRPV3 inhibitor (compound 82) were determined via HPLC/MS/MS following administration to male Sprague-Dawley rats.

rat TRPV3 = target: T2, rat TRPV3 (Rattus norvegicus, UniProt Q4QYD9); test: Whole-cell patch clamp, cells expressing rat TRPV3; type: cell-based; settings: rat TRPV3 IC50 converted to mass concentration
T2 construct: expressed in transfected cells
T2 sequence (Q4QYD9 1-791): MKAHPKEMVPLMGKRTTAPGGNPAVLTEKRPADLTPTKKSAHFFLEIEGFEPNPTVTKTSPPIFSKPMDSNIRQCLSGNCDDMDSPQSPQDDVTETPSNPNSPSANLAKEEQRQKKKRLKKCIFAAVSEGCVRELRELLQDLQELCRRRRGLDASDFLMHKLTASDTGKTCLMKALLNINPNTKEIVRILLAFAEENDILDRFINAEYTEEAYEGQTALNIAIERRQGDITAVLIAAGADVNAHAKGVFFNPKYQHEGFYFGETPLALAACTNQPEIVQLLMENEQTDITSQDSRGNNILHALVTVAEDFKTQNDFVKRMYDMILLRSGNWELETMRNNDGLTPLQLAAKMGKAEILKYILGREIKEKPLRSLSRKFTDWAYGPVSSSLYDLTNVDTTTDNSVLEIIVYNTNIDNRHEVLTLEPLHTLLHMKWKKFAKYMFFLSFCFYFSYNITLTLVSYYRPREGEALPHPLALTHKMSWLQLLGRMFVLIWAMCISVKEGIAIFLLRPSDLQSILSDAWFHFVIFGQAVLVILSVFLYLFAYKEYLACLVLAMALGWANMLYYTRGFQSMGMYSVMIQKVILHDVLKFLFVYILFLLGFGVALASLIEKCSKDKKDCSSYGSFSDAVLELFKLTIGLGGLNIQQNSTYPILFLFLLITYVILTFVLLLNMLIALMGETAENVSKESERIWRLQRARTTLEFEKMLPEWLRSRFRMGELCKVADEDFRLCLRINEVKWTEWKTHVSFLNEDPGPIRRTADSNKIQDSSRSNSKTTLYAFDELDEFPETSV
Excerpt: as §1, §2, §3

[1] = system: carrageenan model of acute inflammatory pain; test: Carrageenan model of acute inflammatory pain (thermal hyperalgesia, Hargreaves); type: in vivo, rats
Experimental: As outlined above, the carrageenan model is a model of acute inflammatory pain. As such, it may be used to evaluate effectiveness in relieving pain caused by inflammation, for example, pain due to arthritis.
Briefly, naive rats were pretested for sensitivity to a heat stimulus using the Hargreaves apparatus. The next day, 100 μL of λ-carrageenan was injected into the plantar surface of the right hindpaw approximately 4.5 hours before testing. 30-60 minutes before testing the rats were injected intraperitoneally with vehicle or drug (to evaluate the efficacy of a TRPV3 inhibitor administered IP) or were administered vehicle or drug orally (PO; to evaluate the efficacy of a TRPV3 inhibitor administered orally).
In this study, the drug administered was either a TRPV3 inhibitor (compound 82), the TRPV1 inhibitor, A-425619 (produced by Abbott; maximal efficacious dose, 40 mg/kg IP; El Kouhen et al, 2005, J Pharmacol Exp Ther 314: 400-4091; Honore et al., 2005, J Pharmacol Exp Ther 314: 410-421), or the non-steroidal anti-inflammatory diclofenac. Following administration of both carrageenan and drug or vehicle control, the thermal escape latency was measured. Data are expressed as a percentage comparing the recorded Paw Withdrawal Latencies (PWLs) in seconds to that pre-carrageenan administration.

[2] = Plasma levels / pharmacokinetics after IV or oral administration; type: in vivo, male Sprague-Dawley rats; settings: PO suspension 50 mg/kg, rat
Experimental: as §3
To evaluate pharmacokinetic properties of this TRPV3 inhibitor, rats were administered a single intravenous (IV) bolus dose of […] or an oral dose of a suspension of 50 mg/kg. For intraveneous administration, the TRPV3 inhibitor solution was formulated in PBS/NaOH, pH 10.5, at a target concentration of 0.25 mg/mL. This solution was administered as a rapid bolus (2-3 seconds) at a dose volume of 4 mL/kg via the tail vein of conscious rats or via a jugular vein catheter in anesthetized rats. For oral administration, the TRPV3 inhibitor was formulated as a uniform suspension in CMC (carboxymethylcellulose) at a target concentration of 5 mg/mL, and administered by oral gavage at a dose volume of 10 mL/kg to conscious rats.

[3] = Plasma, brain and CSF levels after IP or PO administration; type: in vivo; settings: 0.5, 1, 4 hours post IP 200 or 50 mg/kg or PO 200 mg/kg, rats
Excerpt: For each time point evaluated, plasma levels are depicted by the left-most bar, brain levels are depicted by the center bar, and CSF levels are depicted by the right-most bar. […] For each time point evaluated, plasma levels are depicted by the left-most bar, brain levels are depicted by the center bar, and CSF levels are depicted by the right-most bar. […] For each time point evaluated, plasma levels are depicted by the left-most bar, brain levels are depicted by the center bar, and CSF levels are depicted by the right-most bar.

COc1cccc(/C=C/c2nc3ccccc3c(=O)n2-c2ccccc2)c1O [compound 82]
effective concentration corresponding to IC50 (human TRPV3): approximately 94 ng/mL | effective concentration corresponding to IC50 (rat TRPV3): ~0.105 µg/mL | reduction of thermal hyperalgesia in carrageenan model ([1]; IP, 50 mg/kg): effective | reduction of thermal hyperalgesia in carrageenan model ([1]; IP, 200 mg/kg): effective | reduction of thermal hyperalgesia in carrageenan model ([1]; oral, 200 mg/kg): effective | reducing pain in the carrageenan model ([1]; rats, thermal hyperalgesia): efficacious in reducing pain | estimated half-life (T1/2) [2]: one | detection in plasma, brain and CSF (central penetration) [3]: detected not only in plasma, but also in brain and CSF
